Experiment [1] relates to Interleukin-2 (IL-2) production/release in Jurkat T cell line. In words: Jurkat IL-2 Production Assay. It counts as cell-based. Particulars: Homo sapiens; Jurkat T cells, PHA stimulation 22 hours. As for the experimental part:
Jurkat IL-2 Production Assay
The effect of compounds of the invention on Interleukin-2 (IL-2) production/release was tested in the Jurkat T cell line (ECACC) clone E6-1. Jurkat T cells were cultured in DMEM/F12/Glutamax (Gibco) containing 10% FCS (Gibco), and maintained at 37° C., 5% CO2. Cell were split twice a week [5*10^6 (Mon-Thu) and 1*10^7 (Thu-Mon) cells/50 ml medium in T-175 ZK culture flasks, respectively]. Prior to experiment, cells were seeded on 96 well plates (Cellstar 96 Well; Cat No. 655180, Greiner bio-one) at a density of 5*10^5 cells/well in DMEM/F12/Glutamax (Gibco) containing 10% FCS (Gibco), and incubated for 60 min at 37° C., 5% CO2. Subsequently, compounds were added and cells were allowed to incubate for 30 min at 37° C., 5% CO2. Cells were then stimulated with 15 μg/ml Phytohemagglutinin (PHA; Sigma) for 22 hours at 37° C., 5% CO2. Before sampling of the supernatants, cells were spun down (200*g/5 min/RT). The amount of IL-2 released into the supernatant was quantified with the human IL-2 AlphaLisa kit (Perkin Elmer) according to manufacturer's instructions. Luminescence proximity measurements were carried out in the Synergy H4 reader (BioTek) employing the fluorescence setting of the reader (ex: 680/30 nm; em: 620/40 nm). Inhibition of IL-production/release in/from Jurkat T cells was quantified as follows: Zero percent inhibition (MAX) was defined as the [IL-2] determined in supernatants derived from cells to which PHA & DMSO-only had been added instead of compound. Hundred percent inhibition (MIN) was defined as the [IL-2] determined in supernatants derived from cells that had been pre-treated with 1 μM CyclosporineA (Sigma) before the addition of 15 μg/ml PHA. For routine IC50 determinations of compounds, 8 concentrations of a serial dilution (1:3.16) were tested, starting off from 10 μM.

Experiment [2] deals with T1, CRAC channel (endogenous SOC in HEK293 cells) (Homo sapiens, UniProt Q96D31).
T1 construct: endogenous in cells; host or cells: HEK293 (ECACC)
T1 sequence (Q96D31 whole entry): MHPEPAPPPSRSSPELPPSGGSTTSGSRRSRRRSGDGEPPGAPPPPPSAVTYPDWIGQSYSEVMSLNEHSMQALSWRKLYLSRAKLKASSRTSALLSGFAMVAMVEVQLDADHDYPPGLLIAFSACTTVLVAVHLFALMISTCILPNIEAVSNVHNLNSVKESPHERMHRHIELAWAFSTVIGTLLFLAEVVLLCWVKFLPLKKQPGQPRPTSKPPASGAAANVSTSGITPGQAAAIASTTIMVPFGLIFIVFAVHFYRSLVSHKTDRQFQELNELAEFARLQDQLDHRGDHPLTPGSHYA
Kind of experiment: HEK Calcium Influx Assay (FLIPR). It counts as cell-based. Here is the method: The effect of compounds of the invention on intracellular [Ca^2+] was tested in the HEK293 cell line (ECACC). HEK293 cells were cultured in DMEM/F12/Glutamax (Gibco) containing 10% FCS (Gibco), and maintained at 37° C., 5% CO2. Cell were split twice a week [3*10^6 (Mon-Thu) and 1*10^6 (Thu-Mon) cells/50 ml medium in T-175 ZK culture flasks, respectively]. Twenty four hours pre-experiment, cells were seeded on 96 well plates (Poly-D-Lysine 96well Black/Clear Plate, BD Biocoat REF 356640) at a density of 40,000 cells/well in DMEM/F12 (Gibco) containing 10% FCS (Gibco), and maintained at 37° C., 5% CO2. Prior to store-depletion, cell culture medium was removed and cells were loaded with the a Calcium-sensitive fluorescent dye comprised within the Calcium-4-assay kit (Molecular Devices) in nominally Ca^2+-free HBS buffer (140 mM NaCl, 4 mM KCl, 0.2 mM MgCl2, 11 mM D-glucose, and 10 mM HEPES, pH 7.4) according to manufacturer's instruction for 60 min at 37° C., 5% CO2. Passive depletion of intracellular Ca^2+-stores was then triggered by employing the SERCA inhibitor thapsigargin (2 μM final) for 10 min in the dark (RT). To prevent immediate Ca^2+-entry via the activated Store-operated channels (SOCs), cells were maintained in Ca^2+-free HBS buffer comprising 100 μM EGTA during store-depletion. Intracellular changes in [Ca^2+] were subsequently monitored with the FLIPR device (Molecular Devices). In brief, baseline imaging post-store depletion was allowed for 1 min before adjusting the extracellular buffer to 3 mM CaCl2. Increases in intracellular [Ca^2+] due to pre-activated SOC channels were monitored for 15 min until intracellular Ca^2+ levels had declined into a steady-state. Finally, compounds were administered and Ca^2+ signals were recorded for additional 10 min. Inhibition of endogenous SOC in HEK293 cells was quantified employing the average Ca^2+ signal measured from 9.5-10 min post-administration. Zero percent inhibition (MAX) was defined as the Ca^2+ signal recorded from wells to which DMSO-only had been added instead of compound. Hundred percent inhibition (MIN) was defined as the signal obtained from wells in which cells haven't been treated with TG prior to Ca^2+ addition and to which DMSO-only had been added instead of compound. For routine IC50 determinations of compounds, 8 concentrations of a serial dilution (1:3.16) were tested, starting off from 10 μM. Reliable IC50's could consequently be determined only, if they were at least sub 2.5-3 μM.

Setting [3] is: numeric values of Table 2, read-out: inhib. [@ 10 μM] FLIPR.
Where [4] appears, read: thapsigargin store depletion, read-out: % inhib. [@ 10 μM] FLIPR.

Structures can show the parent of a compound that is named as a salt. Where two headings read alike, the source gives them in different places.

Regarding `Cc1cc(OCC2CCC2)ncc1-c1cc(C(=O)Nc2c(F)cncc2F)nn1C` [Example 20, 5-[6-(Cyclobutyl-methoxy)-4-methyl-pyridin-3-yl]-N-(3,5-difluoro-pyridin-4-yl)-1-methyl-1H-pyrazole-3-carboxylic acid amide], the IC50 – broadly, the midpoint of a concentration-inhibition curve – in experiment [1] was less than 0.5 µM. The figures for the inhibition at 10 µM in experiment [2] (setting [3]) and in experiment [2] (setting [4]) were 121% and more than 70%, respectively.
For `CCc1cc(C)c(-c2cc(C(=O)Nc3c(F)cncc3F)nn2C)cn1` [Example 7, N-(3,5-Difluoro-pyridin-4-yl)-5-(6-ethyl-4-methyl-pyridin-3-yl)-1-methyl-1H-pyrazole-3-carboxylic acid amide], in that order: 1 to 5 µM, 61% and 50 to 70%.
For `Cc1cc(OC(C)C)ncc1-c1cc(C(=O)Nc2c(F)cccc2F)nn1C` [Example 13, N-(2,6-Difluoro-phenyl)-5-(6-isopropoxy-4-methyl-pyridin-3-yl)-1-methyl-1H-pyrazole-3-carboxylic acid amide], in that order: 0.5 to 1 µM, 100% and more than 70%.
As to `CCOc1ccc(-c2cc(C(=O)Nc3c(F)cccc3F)nn2C)c(C)n1` [Example 5, N-(2,6-Difluoro-phenyl)-5-(6-ethoxy-2-methyl-pyridin-3-yl)-1-methyl-1H-pyrazole-3-carboxylic acid amide], in experiment [1], the IC50 lay in the range of 1 to 5 µM. Besides, in experiment [2] (setting [4]), the inhibition at 10 µM is more than 70%.
Take `Cc1cc(N(C)C)ncc1-c1cc(C(=O)Nc2c(F)cccc2F)nn1C` [Example 37, N-(2,6-Difluoro-phenyl)-5-(6-dimethylamino-4-methyl-pyridin-3-yl)-1-methyl-1H-pyrazole-3-carboxylic acid amide]: the IC50 in experiment [1] fell in the range of 1 to 5 µM. In addition, the inhibition at 10 µM in experiment [2] (setting [3]) was 98%; in experiment [2] (setting [4]), more than 70%.
The matching figures for `CCOc1cc(C)c(-c2cc(C(=O)Nc3c(F)cncc3F)nn2C)cn1` [Example 2, N-(3,5-Difluoro-pyridin-4-yl)-5-(6-ethoxy-4-methyl-pyridin-3-yl)-1-methyl-1H-pyrazole-3-carboxylic acid amide]: 0.5 to 1 µM, 95% and more than 70%.
For `Cc1cc(OC2CC2)ncc1-c1cc(C(=O)Nc2c(F)cncc2F)nn1C` [Example 9, 5-(6-Cyclopropyloxy-4-methyl-pyridin-3-yl)-N-(3,5-difluoro-pyridin-4-yl)-1-methyl-1H-pyrazole-3-carboxylic acid amide], in that order: 0.5 to 1 µM, 76% and more than 70%.
The matching figures for `Cc1cc(C2CC2)ncc1-c1cc(C(=O)Nc2c(F)cccc2F)nn1C` [Example 8, 5-(6-Cyclopropyl-4-methyl-pyridin-3-yl)-N-(2,6-difluoro-phenyl)-1-methyl-1H-pyrazole-3-carboxylic acid amide]: 1 to 5 µM, 81% and more than 70%.
Turning to `COc1cc(OC)c(-c2c(C)c(C(=O)Nc3cnc(C)cc3C)nn2C)cn1` [Example 66, 5-(4,6-Dimethoxy-pyridin-3-yl)-N-(4,6-dimethyl-pyridin-3-yl)-1,4-dimethyl-1H-pyrazole-3-carboxylic acid amide], the IC50 in experiment [1] is 1 to 5 µM. For the same compound, the inhibition at 10 µM in experiment [2] (setting [4]) fell in the range of 50 to 70%.
For the compound `COc1cc(OC2CC2)ncc1-c1cc(C(=O)Nc2c(F)cccc2F)nn1C` [Example 61, 5-(6-Cyclopropyloxy-4-methoxy-pyridin-3-yl)-N-(2,6-difluoro-phenyl)-1-methyl-1H-pyrazole-3-carboxylic acid amide], in experiment [1], the concentration for half-maximal inhibition (IC50) is less than 0.5 µM. In addition, the inhibition at 10 µM in experiment [2] (setting [4]) is more than 70%.
Take `CCOc1cc(OCC)c(-c2cc(C(=O)Nc3c(F)cncc3F)nn2C)cn1` [Example 15, 5-(4,6-Diethoxy-pyridin-3-yl)-N-(3,5-difluoro-pyridin-4-yl)-1-methyl-1H-pyrazole-3-carboxylic acid amide]: the IC50 in experiment [1] was less than 0.5 µM. Moreover, the inhibition at 10 µM in experiment [2] (setting [4]) is more than 70%.
For `COc1cc(OC)c(-c2c(C)c(C(=O)Nc3c(F)cncc3F)nn2C)cn1` [Example 65, N-(3,5-Difluoro-pyridin-4-yl)-5-(4,6-dimethoxy-pyridin-3-yl)-1,4-dimethyl-1H-pyrazole-3-carboxylic acid amide], in that order: 1 to 5 µM and more than 70%.
With `COc1cc(OC)c(-c2cc(C(=O)Nc3c(F)cccc3F)n[nH]2)cn1` [Example 69, N-(2,6-Difluoro-phenyl)-5-(4,6-dimethoxy-pyridin-3-yl)-1H-pyrazole-3-carboxylic acid amide hydrochloride], the concentration for half-maximal inhibition (IC50) in experiment [1] is 1 to 5 µM. For the same compound, the inhibition at 10 µM in experiment [2] (setting [4]) is more than 70%.
For `COc1cc(OC(F)F)ncc1-c1cc(C(=O)Nc2c(F)cccc2F)nn1C` [Example 43, 5-[6-(Difluoro-methoxy)-4-methoxy-pyridin-3-yl]-N-(2,6-difluoro-phenyl)-1-methyl-1H-pyrazole-3-carboxylic acid amide], in that order: less than 0.5 µM and more than 70%.
For the compound `Cc1cc(OC2COC2)ncc1-c1cc(C(=O)Nc2c(F)cccc2F)nn1C` [Example 23, N-(2,6-Difluoro-phenyl)-1-methyl-5-[4-methyl-6-(oxetan-3-yloxy)-pyridin-3-yl]-1H-pyrazole-3-carboxylic acid amide], the IC50 in experiment [1] lay within 1 to 5 µM. Also, the inhibition at 10 µM was 94% in experiment [2] (setting [3]) and more than 70% in experiment [2] (setting [4]).
The matching figures for `COCCOc1cc(C)c(-c2cc(C(=O)Nc3c(F)cccc3F)nn2C)cn1` [Example 28, N-(2,6-Difluoro-phenyl)-5-[6-(2-methoxy-ethoxy)-4-methyl-pyridin-3-yl]-1-methyl-1H-pyrazole-3-carboxylic acid amide]: 1 to 5 µM, 87% and more than 70%.
For `Cc1cc(C(F)(F)F)ncc1-c1cc(C(=O)Nc2c(F)cccc2F)nn1C` [Example 60, N-(2,6-Difluoro-phenyl)-1-methyl-5-[4-methyl-6-(trifluoromethyl)-pyridin-3-yl]-1H-pyrazole-3-carboxylic acid amide], in that order: 0.5 to 1 µM, 100% and more than 70%.
In the case of `CCOc1ncc(-c2cc(C(=O)Nc3c(F)cccc3F)nn2C)c(C)c1F` [Example 35, N-(2,6-Difluoro-phenyl)-5-(6-ethoxy-5-fluoro-4-methyl-pyridin-3-yl)-1-methyl-1H-pyrazole-3-carboxylic acid amide], in experiment [1], the IC50 was 1 to 5 µM. Moreover, the inhibition at 10 µM in experiment [2] (setting [4]) was less than 50%.

The values above are taken from patent publication US20150166505A1, “PYRIDINYL-SUBSTITUTED PYRAZOLYL CARBOXAMIDES” (GRÜNENTHAL GMBH, priority 2013, published 2015).
